According to ChEMBL document CHEMBL1201862, “PubChem BioAssay data set” (2004):
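Step 1: Grow cells in 96-well plates. Step 2: Expose to compound for 48 hours at 5 concentrations. Step 3: Interpolate endpoints linearly; if unreached, use highest concentration. Abbreviation: GI50, concentration required for 50% inhibition of growth.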 Active and inactive are the calls of the source. No stated cut-off is given here; in the data, active = GI50 up to about 1.1 µM and inactive = higher.

What was measured:
Assay in all cases: NCI-60 cell line screen, 48 h
BT-549 = system: BT-549
DLD-1 = system: DLD-1
DMS-273 = system: DMS-273
LXFL 529 = system: LXFL 529
M19-MEL = system: M19-MEL
SNB-78 = system: SNB-78
XF498 = system: XF498
HOP-18 = system: HOP-18
RXF 631 = system: RXF 631

SMILES	GI50 (BT-549)	GI50 (DLD-1)	GI50 (DMS-273)	GI50 (M19-MEL)	also measured
CC(=O)OC1CCn2c1nc1cc([N+](=O)[O-])c(C)cc12 (stereo not given)	> 100 µM (inactive)	–	–	–	–
Cc1c2c(nc3ccccc13)C(=O)c1cccnc1C2=O	61.8 µM (inactive)	–	–	–	–
O=C1CSC(C(/N=N/c2ccccc2)=C2Nc3ccccc3N2)=N1	–	64.3 µM (inactive)	20.1 µM (inactive)	36.7 µM (inactive)	GI50 (LXFL 529): 34 µM (inactive); GI50 (SNB-78): 46.8 µM (inactive); GI50 (XF498): 27.9 µM (inactive)
CN(C)c1ccc(-c2cc(O)c3ccccc3n2)cc1	–	> 100 µM (inactive)	> 100 µM (inactive)	> 100 µM (inactive)	GI50 (LXFL 529): > 100 µM (inactive); GI50 (SNB-78): > 100 µM (inactive)
O=C(O)CNc1ccc(C(=O)O)cc1	> 100 µM (inactive)	–	–	–	–
Cc1cn(C2CC(OC(c3ccccc3)(c3ccccc3)c3ccccc3)C(COC(c3ccccc3)(c3ccccc3)c3ccccc3)O2)c(=O)[nH]c1=O (stereo not given)	27.5 µM (inactive)	–	–	–	–
Cc1ccc2c(ccc(/C=C/c3ccc(O)c4ncccc34)[n+]2C)c1	–	2.72 µM (inactive)	2.07 µM (inactive)	6.08 µM (inactive)	GI50 (HOP-18): 13.1 µM (inactive); GI50 (LXFL 529): 1.16 µM (inactive); GI50 (SNB-78): 9.77 µM (inactive); GI50 (XF498): 3.19 µM (inactive)
OCC1CCC(n2cnc3c(O)ncnc32)O1 (stereo not given)	> 1000 µM (inactive)	> 100 µM (inactive)	> 100 µM (inactive)	> 100 µM (inactive)	GI50 (HOP-18): > 100 µM (inactive)
Cc1nc2ccc(NC3OCC(O)C(O)C3O)cc2c(=O)n1-c1ccccc1 (stereo not given)	> 100 µM (inactive)	–	–	–	–
CC1(C)CCCCCCCCCC2CC2CCC(C)(C)C1=O (stereo not given)	34.4 µM (inactive)	–	–	–	–
Cc1cc(N(CCC#N)CCC#N)ccc1/N=N/c1cccc(Cl)c1	–	–	9.68 µM (inactive)	> 100 µM (inactive)	GI50 (SNB-78): > 100 µM (inactive)
O=C1c2ccccc2C(=O)N1CC(CN1C(=O)c2ccccc2C1=O)(C(=O)OCc1ccccc1)C(=O)OCc1ccccc1	> 100 µM (inactive)	–	–	–	–
CCNC(=O)c1cc(/C=C/c2ccc([N+](=O)[O-])o2)nc2ccccc12	29.8 µM (inactive)	–	–	–	–
Cc1nc2c(nc1C)-c1c(c3c(n1Cc1ccccc1)C(=O)CCC3)C(=O)C2=O	2.86 µM (inactive)	–	–	–	–
Cc1[nH]c(=O)nc(N/N=C/c2ccc(Cl)cc2)c1C(=O)Nc1ccc(Cl)cc1	> 100 µM (inactive)	> 33.7 µM (inactive)	12.6 µM (inactive)	16.1 µM (inactive)	GI50 (HOP-18): 1.22 µM (inactive); GI50 (LXFL 529): 23 µM (inactive); GI50 (SNB-78): > 100 µM (inactive); GI50 (XF498): 4.68 µM (inactive)
S=C(Nc1cccc(Cl)c1)Nc1ccccn1	> 100 µM (inactive)	–	–	–	–
CC(=O)C(CN(CC(C)C)CC(C)C)C(c1ccccc1)c1c(O)c2ccccc2oc1=O (stereo not given)	–	> 100 µM (inactive)	–	> 100 µM (inactive)	GI50 (LXFL 529): > 100 µM (inactive); GI50 (RXF 631): > 100 µM (inactive)
N#CC(Cc1ccccc1)N(CCC1=CCCCC1)C(c1ccccc1)c1ccccc1 (stereo not given)	> 100 µM (inactive)	–	–	–	–
C=CCN1CCC(O)(c2cc(C(=O)OCC)[nH]c2-c2cc(C)no2)C1 (stereo not given)	> 100 µM (inactive)	–	–	–	–
CN(C)CCN(C)C(=O)C1CCCN1C(=O)OCc1ccccc1 (stereo not given)	–	71.3 µM (inactive)	> 100 µM (inactive)	> 100 µM (inactive)	GI50 (LXFL 529): > 100 µM (inactive); GI50 (SNB-78): > 100 µM (inactive); GI50 (XF498): > 100 µM (inactive)

SMILES	GI50 (BT-549)	GI50 (DLD-1)	GI50 (DMS-273)	GI50 (M19-MEL)	also measured
COC(=O)c1c(C#C[Si](C)(C)C)c(C#C[Si](C)(C)C)c(C#C[Si](C)(C)C)c(C#C[Si](C)(C)C)c1C(=O)OC	> 100 µM (inactive)	–	–	–	–
O=S1(=O)C[C@H](O)[C@H](O)CS1	–	> 100 µM (inactive)	> 100 µM (inactive)	> 100 µM (inactive)	GI50 (HOP-18): > 100 µM (inactive); GI50 (LXFL 529): > 100 µM (inactive); GI50 (SNB-78): > 100 µM (inactive); GI50 (XF498): > 100 µM (inactive)
CC1(C)OCC([C@H]2O[C@@H](CC(=S)NCCCCCCCCCCCCNC(=S)C[C@H]3O[C@@H](C4COC(C)(C)O4)[C@H]4OC(C)(C)O[C@H]43)[C@H]3OC(C)(C)O[C@H]32)O1 (stereo not given in full)	35 µM (inactive)	–	–	–	–
Cc1ccc(C(=O)Nc2ccc(CP(=O)(O)O)cc2)cc1NC(=O)c1cccc(NC(=O)Nc2cccc(C(=O)Nc3cc(C(=O)Nc4ccc(CP(=O)(O)O)cc4)ccc3C)c2)c1	> 100 µM (inactive)	–	–	–	–
Cc1oc2c(C)c(O)c3c(c2c1C1(C)OCCO1)C(=O)C=C(Cl)C3=O	–	–	> 100 µM (inactive)	> 100 µM (inactive)	GI50 (LXFL 529): > 100 µM (inactive); GI50 (RXF 631): > 100 µM (inactive); GI50 (SNB-78): > 100 µM (inactive); GI50 (XF498): 33.3 µM (inactive)
COc1ccc(-c2nc3ccccc3s2)cc1OC	15.4 µM (inactive)	–	–	–	–
N#Cc1c(O)cc(=O)n2c1[nH]c1ccccc12	> 100 µM (inactive)	–	–	–	–
CCn1c2c(c3ccccc3c1=O)C(=O)c1ccccc1-2	> 100 µM (inactive)	–	–	–	–
COc1nc(C#CC2(O)CCCCC2)nc(OC)n1	14.5 µM (inactive)	–	–	–	–
Cc1nc(C)c(N2CCN(CN)CC2)c(O)n1	> 100 µM (inactive)	–	–	–	–
Cn1ccnc1SC(F)(F)c1nc2ccccc2o1	46.5 µM (inactive)	–	–	–	–
O=CN/C=C\c1cc(O)ccc1O	–	14.6 µM (inactive)	7.11 µM (inactive)	11.8 µM (inactive)	GI50 (HOP-18): 16.8 µM (inactive); GI50 (LXFL 529): 10.8 µM (inactive); GI50 (SNB-78): 70 µM (inactive); GI50 (XF498): 15.4 µM (inactive)
COc1ccc(N2C(=O)C3c4[nH]c5ccccc5c4C4CC(C)CC(C)C4C3C2=O)cc1 (stereo not given)	–	> 100 µM (inactive)	> 100 µM (inactive)	> 100 µM (inactive)	GI50 (HOP-18): > 100 µM (inactive); GI50 (LXFL 529): > 100 µM (inactive); GI50 (SNB-78): > 100 µM (inactive); GI50 (XF498): > 100 µM (inactive)
C=CCC1(CN(C)C)CC/C(=C\c2cc(OC)c(OC)c(OC)c2)C1=O (stereo not given)	–	20 µM (inactive)	> 10 µM (inactive)	37.1 µM (inactive)	GI50 (HOP-18): 22.3 µM (inactive); GI50 (LXFL 529): 17.9 µM (inactive); GI50 (RXF 631): 25.6 µM (inactive); GI50 (SNB-78): 28.1 µM (inactive)
C=C1C(OC2O[C@@H]3O[C@@]4(C)CC[C@H]5[C@H](C)CC[C@@H](C2=C)[C@@]35O4)O[C@@H]2O[C@@]3(C)CC[C@H]4[C@H](C)CC[C@@H]1[C@@]24O3 (stereo not given in full)	> 50 µM (inactive)	–	–	–	–
Cc1cccc2cc3c(ccc4ccccc43)c[n+]12	7.08 µM (inactive)	–	–	–	–
NC(=O)NNc1nc2ccccc2c(=O)n1NC(=O)C(=O)Nc1ccc(Cl)cc1Cl	> 100 µM (inactive)	–	–	–	–
Nc1ccc(/N=N/c2ccccc2)cc1	65.6 µM (inactive)	–	–	–	–
COC(=O)C1CC23C4=C(CCC41)CCC1CN4CC(C)C(CC(OC(C)=O)C12COC(C)=O)C43O (stereo not given)	> 100 µM (inactive)	–	–	–	–
COc1ccc(C(O)(c2ccccc2)c2nccc3ccccc23)cc1 (stereo not given)	8.41 µM (inactive)	–	–	–	–

SMILES	GI50 (BT-549)	GI50 (DLD-1)	GI50 (DMS-273)	GI50 (M19-MEL)	also measured
COc1cc(S(=O)(=O)Nc2ccc(-c3csc(N4C(=O)C(Cl)C4c4cccs4)n3)cc2)ccc1Cl (stereo not given)	87.7 µM (inactive)	–	–	–	–
O=C(O)CCC(=O)OC1N=C(c2ccccc2Cl)c2cc([N+](=O)[O-])ccc2NC1=O (stereo not given)	89.1 µM (inactive)	–	–	–	–
COc1ccc2[nH]c3c(C)c4ccnc(NCCCN(C)CCCNc5ccc6nnn7c8ccccc8c(=O)c5c67)c4c(C)c3c2c1	1.83 µM (inactive)	–	–	–	–
CC(C)C1=Cc2ccc3c(c2C(=O)C1=O)CCCC3(C)C [MILTIRONE]	–	2.15 µM (inactive)	4.34 µM (inactive)	2.56 µM (inactive)	GI50 (HOP-18): 2.58 µM (inactive); GI50 (LXFL 529): 1.86 µM (inactive); GI50 (SNB-78): 3.85 µM (inactive)
N#CC12Cc3cc4c(cc3-c3cccc(c31)CCN2C(=O)c1ccccc1)OCO4 (stereo not given)	–	> 100 µM (inactive)	> 100 µM (inactive)	> 100 µM (inactive)	GI50 (HOP-18): > 100 µM (inactive); GI50 (LXFL 529): > 100 µM (inactive); GI50 (SNB-78): 51.6 µM (inactive); GI50 (XF498): 24.2 µM (inactive)
CCCCCCCCCCC[N+]1(Cc2ccccc2)CC2CCN(Cc3ccccc3)CC2C1 (stereo not given)	0.305 µM (active)	–	–	–	–
O=C1[C@H]2C(c3ccccc3)=NN(C(=O)c3ccccc3)[C@H]2C(=O)N1c1ccccc1	–	> 100 µM (inactive)	> 100 µM (inactive)	–	GI50 (HOP-18): 68.4 µM (inactive)
COc1cc(C2c3cccc4cccc(c34)C3CCC(=O)N32)cc(OC)c1O (stereo not given)	> 50 µM (inactive)	–	–	–	–
O=C1CCCCC1C(O)(C(F)(F)F)C(F)(F)Cl (stereo not given)	> 10 µM (inactive)	–	–	–	–
COc1ccc(C2C3=C(COC3=O)Oc3cc4c(cc32)OCO4)cc1 (stereo not given)	–	15.4 µM (inactive)	5.26 µM (inactive)	15.5 µM (inactive)	GI50 (HOP-18): 18.6 µM (inactive); GI50 (SNB-78): 16.6 µM (inactive); GI50 (XF498): 7.18 µM (inactive)
CC(C)(C)[C@H]1CO[C@]2(C)[C@@H]3C[C@@H]3C(=O)N12	–	> 100 µM (inactive)	> 100 µM (inactive)	> 100 µM (inactive)	GI50 (RXF 631): > 100 µM (inactive); GI50 (SNB-78): > 100 µM (inactive); GI50 (XF498): > 100 µM (inactive)
Cc1cccc(NC2=NC(=O)C(CC(=O)Nc3ccccc3Cl)S2)c1 (stereo not given)	–	> 100 µM (inactive)	> 100 µM (inactive)	> 100 µM (inactive)	GI50 (LXFL 529): > 100 µM (inactive); GI50 (RXF 631): > 100 µM (inactive); GI50 (SNB-78): > 100 µM (inactive); GI50 (XF498): 95.1 µM (inactive)
CC(=O)OC12OC(C)(C3C(=O)N(c4ccccc4)C(=O)C31)N(c1ccccc1)C2=O (stereo not given)	> 100 µM (inactive)	–	–	–	–
Cc1ccccc1C1=[N+]([O-])c2ccccc2C1=O	–	17.3 µM (inactive)	–	15.2 µM (inactive)	GI50 (HOP-18): 19.6 µM (inactive); GI50 (LXFL 529): 14.9 µM (inactive); GI50 (RXF 631): 23.6 µM (inactive); GI50 (XF498): 17.4 µM (inactive)
Cc1nc(N)c(N2CCN(Cc3ccccc3)CC2)c(O)n1	> 100 µM (inactive)	–	–	–	–
CCOC(=O)C1=C(Nc2cccc3ccccc23)OC/C1=N\NC(=O)c1ccccc1O	–	17.6 µM (inactive)	9.59 µM (inactive)	19.1 µM (inactive)	GI50 (HOP-18): 11.1 µM (inactive); GI50 (LXFL 529): 20.3 µM (inactive); GI50 (RXF 631): 21.2 µM (inactive); GI50 (XF498): 8.04 µM (inactive)
CC1[C@@]2(CCC(C)(C)O2)O[C@@H]2C=C3C4CCC5Cc6nc7c(nc6C[C@@]5(C)C4C[C@H](O)[C@@]3(C)[C@]12O)CC1CCC2C3=C[C@H]4O[C@@]5(O[C@@](C)(CO)C[C@@H]5O)C(C)[C@@]4(O)[C@]3(C)[C@@H](O)CC2[C@]1(C)C7 (stereo not given in full)	–	0.753 µM (active)	0.0123 µM (active)	0.991 µM (active)	GI50 (LXFL 529): 0.0254 µM (active); GI50 (RXF 631): 0.0198 µM (active); GI50 (SNB-78): 0.043 µM (active); GI50 (XF498): 0.322 µM (active)
CC1(C)CCCCCC(C)(CCCO)C1=O (stereo not given)	> 100 µM (inactive)	–	–	–	–
COC(=O)NCCc1n[nH]c2c1C(=O)C=C(N1CCOCC1)C2=O	> 100 µM (inactive)	–	–	–	–
